Laboratory results from US4535081A, “Antiallergic and antiulcer 1-oxo-1H-thiazolo[3,2-a]pyrimidine-2-carboxamides and intermediates therefor” (Pfizer Inc., priority 1983, dated 1985).
“Also recorded” adds a separate entry of the source. Counter-ions that a name gives are not always drawn. Like-named read-outs stand apart in the source and are kept apart here.

Tests used:
ethanol-induced ulcer = experiment: Ethanol-induced rat ulcer assay; type: in vivo; settings: oral, 5 mg./kg.; for % Inhibition in the Ethanol-Induced Rat Ulcer Assay, amides: Table III; for % Inhibition in the Ethanol-Induced Rat Ulcer Assay, acids: Table IV
Description: Alternatively, the effectiveness of the products of this invention as antiulcer agents is determined in an ethanol-induced rat ulcer assay. In this test, overnight fasted male rats are given drug (5 mg./kg.) or water orally fifteen minutes prior to an orally administered dose of absolute ethanol (1.0 ml.). One hour after the ethanol challenge the animals (8/group) are killed and the stomachs examined for the presence of lesions. All drugs were dissolved in dilute NaOH. After sacrifice the abdomen is opened and a locking hemostat placed at the pylorus. 6 ml. of a 4% solution of formaldehyde was injected into the stomach with a gastric feeding tube and a second locking hemostat was used to seal the esophagus. The stomach was removed, opened along the greater curvature and examined for ulceration.
The scoring system used to quantitate the ethanol-induced lesions is given below.
For each group of animals an ulcer index is calculated as follows:
Ulceration Index=(the sum of the scores of the group)×(the sum of the number of ulcers in the group)×(the fraction of the group having any incidence of ulceration).
The percentage inhibition of ulcers is calculated as follows:
% Inhibition=100×[(ulcer index controls)-(ulcer index drug-treated)].div.(ulcer index controls).

[1] = system: IgG (hyperimmune antiserum) PCA reaction; experiment: Oral activity in PCA test, IgG; type: in vivo; settings: Rattus norvegicus
Description: (§1) The antiallergy property of the compounds of this invention is evaluated by the passive cutaneous anaphylaxis (PCA) test (Ovary, J. Immun., 81, 355, 1958). In the PCA test, normal animals are injected intradermally (i.d.) with antibodies contained in serum obtained from actively sensitized animals. The animals are then challenged intravenously with antigen mixed with a dye such as Evans' Blue. The increased capillary permeability caused by the antigen-antibody reaction causes the dye to leak from the site of the antibody injection. The test animals are then asphyxiated and the intensity of the reaction determined by measuring the diameter and intensity of the blue coloration on the inner surface of the animals' skin.
(§2) The ability of agents to interfere with PCA reactions is measured in male Charles River Wistar rats, 170-210 g. Reaginic antiserum, rich in IgE antibodies, is prepared according to Petillo et al., Int. Arch. Allergy, 44, 309 (1973). Hyperimmune antiserum rich in IgG antibodies to hen egg albumin is prepared according to Orange et al., J. Exptl. Med., 127, 767 (1968). Forty-eight hours prior to antigen challenge, the reaginic antiserum is injected intradermally (i.d.) into the shaved skin of a normal rat's back; 5 hours before challenge the hyperimmune antisera is similarly injected. At a third site 60 mcg. histamine dihydrochloride and 0.5 mcg. serotonin creatinine sulfate are injected i.d. just prior to antigen challenge as a check for antihistaminic, antiserotonin and unspecific types of blockage; the compounds of the instant invention or saline are then administered i.v. and immediately followed by the challenge of 5 mg. egg albumen and 2.5 mg. Evans' Blue dye in saline. In the case of oral administration Evans' Blue dye and egg albumin are given 5 minutes after administration of the drug. Thirty minutes later the animals are asphyxiated using chloroform and the skin of the back removed and reversed for observation. A score is assigned each injection site equal to the product of the diameter of the site in mm. and a grade of 0.1, 0.5, 1, 2, 3 or 4 proportional to intensity of dye coloration. The scores for a given injection site are summed for each group of five animals and compared to the saline treated controls. The difference is expressed as percent blockage due to the compound employed.
Compounds representative of those of the present invention are tested for antiallergy activity by the above-described procedure and the resulting activities are reported as the degree (%) of protection.

[2] = system: IgE (reaginic antiserum) PCA reaction; experiment: Oral activity in PCA test, IgE; type: in vivo, rat; settings: Rattus norvegicus, IgE, oral
Description: as §1
The PCA test is a measure of the anti-allergic (especially anti-asthmatic) activity of a compound. Compounds which inhibit a positive PCA test induced by the rat immunochemical counterpart of human immunoglobulin E (IgE), or reagin, are considered to have anti-allergic activity (C. Mota, Ann. N.Y. Acad. Sci., 103, 264 1963). (Reagin is primarily immunoglobulin E [IgE] and is the principal immunoglobulin responsible for allergic asthma, anaphylaxis, hay fever, food sensitivities and certain manifestations of drug sensitivities, although recent evidence ascribes to the IgG class of antibodies a significant role in the mediation of allergic diseases). Such compounds when administered to a sensitized subject, human or animal, prior to the time when the subject comes into contact with antigens or substances to which it is allergic, will prevent the allergic reaction which would otherwise occur. They, therefore, provide a method for the prophylactic treatment of allergy or anaphylactic reactions of a reagin mediated nature.
To put it another way, such compounds block the release of mediators resulting from the antigen-antibody (allergic) reaction as illustrated in the PCA test using rat homocytotropic antibody--a known correlate of human reaginic antibody. Inhibition of reaginic antigen-antibody reactions in rats, the test animal of the PCA test, is regarded as representative of inhibition of human reaginic antigen-antibody reactions which occur during allergic episodes.
as §2, with “employed. […]” for “employed.”

[3] = Oral absorption and plasma concentrations, dogs; type: in vivo, dog; settings: after oral administration of III
Description: (§3) This is supported by the observations of plasma concentrations of 3 to 7 μg/ml one hour after oral administration of III, 50 to 300 mg/kg.

[4] = Oral absorption and plasma concentrations, rats; type: in vivo, rat; settings: after oral administration of III
Description: as §3

[5] = Plasma levels after repeated daily dosing; type: in vivo; settings: after the eighth daily dose of III
Description: as §3

allergic reactions = settings: cited from earlier work
bronchi = settings: Cox et al., Adv. in Drug Res., 5, 115 (1970); cited from earlier work
[6] = Water solubility and hygroscopicity; type: physicochemical
[7] = Table I amides, read-out: Oral Activity (% of Protection) in the PCA Test, IgG
[8] = Table I amides, read-out: Oral Activity (% of Protection) in the PCA Test, IgE
[9] = read-out: Oral Activity (% of Protection) in the PCA Test, IgG
[10] = read-out: Oral Activity (% of Protection) in the PCA Test, IgE
[11] = Table II acids, read-out: Oral Activity (% of Protection) of Acids in the PCA Test, IgG
[12] = Table II acids, read-out: Oral Activity (% of Protection) of Acids in the PCA Test, IgE

SMILES	% Inhibition in the Ethanol-Induced Rat Ulcer Assay, amides (ethanol-induced ulcer)	% Inhibition in the Ethanol-Induced Rat Ulcer Assay, acids (ethanol-induced ulcer)	inhibition in vivo at 30 mg/kg [1, 11]	inhibition in vivo at 30 mg/kg [2, 12]	also measured
O=C(Nc1nnn[nH]1)c1cnc2sc3c(n2c1=O)CCCCCC3 [Formula I: (CH2)6, N-(5-Tetrazolyl)-1-oxo-1H-cyclooctenothiazolo[3,2-a]pyrimidine-2-carboxamide]	45%				inhibition in vivo at 30 mg/kg [1, 7]: 57%; inhibition in vivo at 30 mg/kg [2, 8]: 94%
CCc1sc2ncc(C(=O)Nc3nnn[nH]3)c(=O)n2c1CC [Formula I: R1=C2H5, R2=C2H5, N-(5-Tetrazolyl)-1-oxo-1H-6,7-diethylthiazolo[3,2-a]pyrimidine-2-carboxamid]	10%				inhibition in vivo at 30 mg/kg [1, 7]: 49%; inhibition in vivo at 30 mg/kg [2, 8]: 62%
CCc1cn2c(=O)c(C(=O)Nc3nnn[nH]3)cnc2s1 [Formula I: R1=C2H5, R2=H, N-(5-Tetrazolyl)-1-oxo-1H-6-ethylthiazolo[3,2-a]pyrimidine-2-carboxamide]	86%				inhibition in vivo at 30 mg/kg [1, 7]: 58%; inhibition in vivo at 30 mg/kg [2, 8]: 85%
Cc1sc2ncc(C(=O)Nc3nnn[nH]3)c(=O)n2c1C [Formula I: R1=CH3, R2=CH3, N-(5-Tetrazolyl)-1-oxo-1H-6,7-dimethylthiazolo[3,2-a]pyrimidine-2-carboxamide]	96%				inhibition in vivo at 3 mg/kg [1, 9]: 51%; inhibition in vivo at 3 mg/kg [2, 10]: 55%
Cc1cn2c(=O)c(C(=O)Nc3nnn[nH]3)cnc2s1 [Formula I: R1=CH3, R2=H, N-(5-Tetrazolyl)-1-oxo-1H-6-methylthiazolo[3,2-a]pyrimidine-2-carboxamide]	72%				inhibition in vivo at 30 mg/kg [1, 7]: 55%; inhibition in vivo at 30 mg/kg [2, 8]: 78%
Cc1csc2ncc(C(=O)Nc3nnn[nH]3)c(=O)n12 [Formula I: R1=H, R2=CH3, N-(5-Tetrazolyl)-1-oxo-1H-7-methylthiazolo[3,2-a]pyrimidine-2-carboxamide]	59%				inhibition in vivo at 3 mg/kg [1, 9]: 50%; inhibition in vivo at 3 mg/kg [2, 10]: 55%
O=C(O)c1cnc2sc3c(n2c1=O)CCCC3 [Formula II: (CH2)4, 1-Oxo-1H-cyclohexenothiazolo[3,2-a]pyrimidine-2-carboxylic Acid]		21%			plasma levels of carboxylic acid metabolite [3]: comparable to those of III; inhibition in vivo at 10 mg/kg ([1]; 10 mg./kg., Table II acids, read-out: Oral Activity (% of Protection) of Acids in the PCA Test, IgG): 39%; plasma levels of carboxylic acid metabolite [4]: comparable to those of III; inhibition in vivo at 10 mg/kg ([2]; 10 mg./kg., Table II acids, read-out: Oral Activity (% of Protection) of Acids in the PCA Test, IgE): 55%; levels after the eighth daily dose relative to initial dose [5]: 2 to 4 times
CCc1sc2ncc(C(=O)O)c(=O)n2c1CC [Formula II: R1=C2H5, R2=C2H5, 1-Oxo-1H-6,7-diethylthiazolo[3,2-a]pyrimidine-2-carboxylic Acid]		48%	32%	41%	
CCc1cn2c(=O)c(C(=O)O)cnc2s1 [Formula II: R1=C2H5, R2=H, 1-Oxo-1H-6-ethylthiazolo[3,2-a]pyrimidine-2-carboxylic Acid]		48%	38%	45%	
Cc1sc2ncc(C(=O)O)c(=O)n2c1C [Formula II: R1=CH3, R2=CH3, 1-Oxo-1H-6,7-dimethylthiazolo[3,2-a]pyrimidine-2-carboxylic Acid]		11%	0%	0%	
Cc1cn2c(=O)c(C(=O)O)cnc2s1 [Formula II: R1=CH3, R2=H, 1-Oxo-1H-6-methylthiazolo[3,2-a]pyrimidine-2-carboxylic Acid]		0%	14%	12%	
Cc1csc2ncc(C(=O)O)c(=O)n12 [Formula II: R1=H, R2=CH3, 1-Oxo-1H-7-methylthiazolo[3,2-a]pyrimidine-2-carboxylic acid]		27%	19%	18%	
O=C(O)c1cc(=O)c2c(OCC(O)COc3cccc4oc(C(=O)O)cc(=O)c34)cccc2o1 [Intal, 1,3-bis(2-carboxycromon-5-yloxy)-2-hydroxypropane]					activity by the oral route (allergic reactions): lacks efficacy by the oral route; also recorded: not active by the oral route; activity by the oral route (allergic reactions; listed as disodium cromoglycate): lack of oral efficacy; bronchodilator action (bronchi): not a bronchodilator
O=C(Nc1nnn[nH]1)c1cnc2sc3c(n2c1=O)CCCC3 [sodium salt (trihydrate), sodium N-(5-tetrazolyl)-1-oxo-1H-cyclohexenothiazolo[3,2-a]pyrimidine-2-carboxamide trihydrate]					hygroscopicity [6]: non-hygroscopic; water solubility [6]: good water solubility
